One test has as its system MCF7 human tumor cells. In words: MCF7 cell assay (Cell Titer-Glo, inhibition of cell growth). The test is classed as cell-based. The note with it: 72 hours of culture. How it is done: The MCF7 human tumor cells were seeded in a clear polystyrene 96-well microculture plate (Corning® Costar® 96-well flat bottom plate, Cat. #3997) in a total volume of 90 μL/well. After 24 hours of incubation in a humidified incubator at 37° C. with 5% CO2 and 95% air, 10 μL of 10×, serially diluted 1 in growth medium was added to each well in duplicate (10 point dose response). After 72 hours of culture in a humidified incubator at 37° C., in an atmosphere of 5% CO2 and 95% air, the plated cells and Cell Titer-Glo® (Promega G7571) reagents were brought to room temperature to equilibrate for 30 minutes. 100 μL of Cell Titer-Glo® reagent was added to each well. The plate was shaken for two minutes and then left to equilibrate for ten minutes. The medium/Cell Titer Glo® reagent was transferred to a white polystyrene 96-well microculture plate (Corning® Costar® 96-well flat bottom plate, Cat. #3917) before reading luminescence on the Tecan GENios microplate reader. Percent inhibition of cell growth was calculated relative to untreated control wells. All tests were performed in duplicate at each concentration level. The IC50 value for the test agents was estimated using Prism 6.05 by curve-fitting the data using the following four parameter-logistic equation: […]
Background: Cellular ATP, detected with luciferase, serves as a proxy for viable cell number.

A further test has as its target CDK6 (Homo sapiens, UniProt Q00534). The test can be described thus: CDK6 biochemical assay (33P-ATP filter-binding kinase assay). Here is the method:
(§1) Cyclin Dl was added to freshly prepared reaction buffer [20 mM Hepes (pH 7.5), 10 mM MgCl2, 1 mM EGTA, 0.02% Brij 35, 0.02 mg/mL BSA, 0.1 mM Na3VO4, 2 mM DTT, 1% DMSO]. CDK4 or CDK6 was delivered to the substrate solution and gently mixed. […] The compounds, diluted in DMSO, were added into the kinase reaction mixture by Acoustic technology (Echo550; nanoliter range) and incubated for 20 minutes at room temperature. 33P-ATP (1 μM) was added to the reaction mixture to initiate the reaction. The kinase reaction was incubated for 2 hours at room temperature. The reactions were spotted onto P81 ion exchange paper and the kinase activity detected by filter-binding method. Curves were fitted to a nonlinear regression curve using a four parameter logistic equation (GraphPad Prism).

In the next test the target is CDK4 (Homo sapiens, UniProt P11802). The test can be described thus: CDK4 biochemical assay (33P-ATP filter-binding kinase assay). How it is done: as §1
CDK4, sequence (P11802 whole entry): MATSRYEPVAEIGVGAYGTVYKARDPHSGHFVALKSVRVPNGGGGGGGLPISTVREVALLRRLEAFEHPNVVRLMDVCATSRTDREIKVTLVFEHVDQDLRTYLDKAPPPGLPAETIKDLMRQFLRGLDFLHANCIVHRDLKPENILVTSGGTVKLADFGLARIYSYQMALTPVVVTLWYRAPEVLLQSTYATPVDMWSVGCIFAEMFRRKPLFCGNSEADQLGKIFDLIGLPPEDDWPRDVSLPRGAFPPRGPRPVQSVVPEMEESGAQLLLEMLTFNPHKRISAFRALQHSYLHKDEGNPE
CDK4, sequence (P24385 whole entry partner): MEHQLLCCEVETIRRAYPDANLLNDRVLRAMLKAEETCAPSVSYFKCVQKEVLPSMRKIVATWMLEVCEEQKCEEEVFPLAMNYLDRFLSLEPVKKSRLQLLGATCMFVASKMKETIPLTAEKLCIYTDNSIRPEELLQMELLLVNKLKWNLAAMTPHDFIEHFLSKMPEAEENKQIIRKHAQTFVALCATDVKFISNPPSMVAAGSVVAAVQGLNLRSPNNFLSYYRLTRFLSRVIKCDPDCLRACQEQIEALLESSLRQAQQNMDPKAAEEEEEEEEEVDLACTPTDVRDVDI

Like-named read-outs stand apart in the source and are kept apart here. Bounds are passed on as bounds.

CDK6, sequence (Q00534 whole entry): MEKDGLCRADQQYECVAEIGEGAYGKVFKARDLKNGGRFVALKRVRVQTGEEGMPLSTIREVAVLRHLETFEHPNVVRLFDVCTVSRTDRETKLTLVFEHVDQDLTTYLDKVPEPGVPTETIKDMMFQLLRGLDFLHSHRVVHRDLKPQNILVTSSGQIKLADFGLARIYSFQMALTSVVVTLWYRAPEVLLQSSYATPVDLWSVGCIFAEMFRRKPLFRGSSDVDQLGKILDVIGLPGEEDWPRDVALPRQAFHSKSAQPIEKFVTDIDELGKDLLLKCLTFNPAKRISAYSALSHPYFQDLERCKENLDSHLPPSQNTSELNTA
CDK6, sequence (P24385 whole entry partner): as the sequence (P24385 whole entry partner) above

What is called IC50 is the concentration that inhibits the measured activity by half. `CCN1CCN(Cc2ccc(Nc3ncc(F)c(-c4ccc5nn(C)c(C(C)C)c5c4)n3)nc2)CC1` [Compound 1, N-(5-((4-ethylpiperazin-1-yl)methyl)pyridin-2-yl)-5-fluoro-4-(3-isopropyl-2-methyl-2H-indazol-5-yl)pyrimidin-2-amine]: the IC50 in the test with MCF7 human tumor cells is less than 2000 nM; at CDK6 (Cyclin D1, 1 μM 33P-ATP, 2 hours at room temperature, read-out: IC50 in CDK6 assay), less than 1 nM; at CDK4 (Cyclin D1, 1 μM 33P-ATP, 2 hours at room temperature, read-out: IC50 in CDK4 assay), less than 1 nM.

In the test with MCF7 human tumor cells, `CN(C)C(=O)c1cc2cnc(Nc3ccc(N4CCNCC4)cn3)nc2n1C1CCCC1` [Compound 32] registered an IC50 of 10000 nM.

In turn, `CCN1CCN(Cc2ccc(Nc3ncc(F)c(-c4cc(F)c5nc(C)n(C(C)C)c5c4)n3)nc2)CC1` [Compound 33] had a half-inhibitory concentration (IC50) with MCF7 human tumor cells of less than 2000 nM.

For `CC(=O)c1c(C)c2nc(Nc3ccc(N4CCNCC4)cn3)ncc2n(C2CCCC2)c1=O` [Compound 34], the 50% inhibitory concentration (IC50) in the test with MCF7 human tumor cells is 10000 nM; at CDK6 (assay conditions described herein, read-out: IC50 CDK6 biochemical assay) it was less than 2 nM; at CDK4 (assay conditions described herein, read-out: IC50 CDK4 biochemical assay), less than 1 nM.

Values taken from US9878994B2, “2-H-indazole derivatives as cyclin-dependent kinase (CDK) inhibitors and therapeutic uses thereof” (Beta Pharma, Inc., priority 2014, dated 2018).
